Reference: paper PMC9189845, “Structure–Activity Relationships of 8-Hydroxyquinoline-Derived Mannich Bases with Tertiary Amines Targeting Multidrug-Resistant Cancer” (Journal of Medicinal Chemistry, 2022)
Structures can show the parent of a compound that is named as a salt. Where two headings read alike, the source gives them in different places.

Assays:
MES-SA cells = assay: PrestoBlue viability assay, MES-SA cells
MES-SA/Dx5 cells = assay: PrestoBlue viability assay, MES-SA/Dx5 cells (MDR, P-gp positive); conditions: for SR: selectivity ratio MES-SA vs MES-SA/Dx5, without TQ; for SR (MES-SA_TQ / Dx5_TQ) (values in parentheses): presence of 1 μM TQ; for SR_TQ: selectivity ratio MES-SA vs MES-SA/Dx5, with TQ
A431 cells = assay: PrestoBlue viability assay, A431 cells
A431-B1 cells = assay: PrestoBlue viability assay, A431-B1 (A431-ABCB1) cells
[1] = cited from earlier work
[2] = UV-visible spectrophotometric titrations (pKa); type: physicochemical; conditions: water with 0.2% (v/v) DMSO, 25 °C
Description: Spectrophotometrical determination of pKa values was performed as previously reported.[20],[50] An Agilent Cary 8454 diode array spectrophotometer was used to record the UV–visible spectra in the interval 200–800 nm. The path length was between 1 and 5 cm. The spectrophotometric titrations were performed in water with 0.2% (v/v) DMSO on samples containing the compounds at 2–50 μM in the pH range from 2 to 11.5 at 25.0 ± 0.1 °C at an ionic strength of 0.10 M (KCl). Proton dissociation constants and the individual spectra of the species in the different protonation states were calculated with the computer program PSEQUAD.[62]

[3] = Homo sapiens, MES-SA, 72 h, read-out: IC50 / μM MES-SA, absence of TQ, 72 h incubation
[4] = Homo sapiens, MES-SA, read-out: pIC50 value MES-SA, MES-SA cells, without TQ (converted)
[5] = Homo sapiens, MES-SA/Dx5, 72 h, read-out: IC50 / μM MES-SA/Dx5, absence of TQ, 72 h incubation
[6] = Homo sapiens, MES-SA/Dx5, read-out: pIC50 value MES-SA/Dx5, MES-SA/Dx5 cells, without TQ (converted)
[7] = Homo sapiens, MES-SA, read-out: IC50 / μM MES-SA (values in parentheses), presence of 1 μM P-gp inhibitor tariquidar (TQ)
[8] = Homo sapiens, MES-SA, read-out: pIC50 value MES-SA+TQ, MES-SA cells, with TQ (converted)
[9] = Homo sapiens, MES-SA/Dx5, read-out: IC50 / μM MES-SA/Dx5 (values in parentheses), presence of 1 μM P-gp inhibitor tariquidar (TQ)
[10] = fraction of IC50 in P-gp negative vs positive cells
[11] = Homo sapiens, A-431, 72 h, read-out: IC50 / µM A431, 72 h incubation
[12] = Homo sapiens, A-431, read-out: pIC50 A431, SARM figure (converted)
[13] = 72 h, read-out: IC50 / µM A431-B1, 72 h incubation
[14] = read-out: pIC50 A431-B1, SARM figure (converted)
[15] = Homo sapiens, MES-SA/Dx5, read-out: pIC50 value MES-SA/Dx5 + TQ, MES-SA/Dx5 cells, with TQ (converted)
[16] = read-out: IC50 / μM MES-SA/Dx5 (values in parentheses), presence of 1 μM P-gp inhibitor tariquidar (TQ)
[17] = 0.2% DMSO, I = 0.10 M KCl, read-out: pKa (OH), experimentally determined
[18] = piperidinium / pyrrolidinium / morpholinium N, read-out: pKa (other; N+amH alkylamine nitrogen), experimentally determined
[19] = quinolinium nitrogen, I = 0.10 M KCl, read-out: pKa (NquinH+), experimentally determined

SMILES | melting point [°C] | IC50 (A431 cells; [11]) [µM] | IC50 (A431 cells; [12]) [µM] | IC50 (A431-B1 cells; [13]) [µM] | IC50 (A431-B1 cells; [14]) [µM] | IC50 (MES-SA cells; [3]) [µM] | IC50 (MES-SA cells; [4]) [µM] | IC50 (MES-SA/Dx5 cells; [5]) [µM] | IC50 (MES-SA/Dx5 cells; [6]) [µM] | SR (MES-SA/Dx5 cells) | IC50 (MES-SA cells; [7]) [µM] | IC50 (MES-SA cells; [8]) [µM] | IC50 (MES-SA/Dx5 cells; [9]) [µM] | SR_TQ (MES-SA/Dx5 cells) | also measured
Oc1c(C(c2cccnc2)N2CCCCC2)ccc2cccnc12 (centres unmarked) [Compound 92, 7-((Piperidine-1-yl)(pyridin-3-yl)methyl)quinolin-8-ol] | 178 to 179 |  |  |  |  | 13.65 ± 0.12 | 13.5 | 8.58 ± 0.38 | 8.51 | 1.59 |  |  |  |  | 
CN1CCN(Cc2ccc3cccnc3c2O)CC1 [Compound 34, 7-((4-Methylpiperazin-1-yl)methyl)quinolin-8-ol] | 120 to 122 | 25.5 ± 1.98 | 25.7 | 11.3 ± 0.95 | 11.2 | 16.7 ± 1.86 | 16.6 | 8.67 ± 1.69 | 8.51 | 1.93 | 15.5 ± 0.19 | 15.5 | 14.1 | 1.1 | SR (MES-SA_TQ / Dx5_TQ) (values in parentheses) (MES-SA/Dx5 cells; [10]): 1.10
Oc1cc2c(cc1O)CN(Cc1ccc3cccnc3c1O)CC2 (as salt: hydrochloride) [Compound 82, 2-((8-Hydroxy-quinolin-7-yl)methyl)-1,2,3,4-tetrahydroisoquinoline-6,7-diol Hydrochloride] | 203 to 206 |  |  |  |  |  |  |  |  |  |  |  |  |  | 
CN1CCN(Cc2ccc3ccccc3c2O)CC1 [Compound 70, 2-((4-Methylpiperazin-1-yl)methyl)naphthalen-1-ol] | 79 to 81 |  |  |  |  | > 100 |  | > 100 |  |  |  |  |  |  | 
CN1CCN(Cc2cnc3ccccc3c2O)CC1 [Compound 71, 3-((4-Methylpiperazin-1-yl)methyl)quinolin-4-ol] | 164 to 166 |  |  |  |  | 94.9 ± 2.02 | 95.5 | 91 | 91.2 | 1.04 |  |  |  |  | 
Oc1c(CN2CCc3ccccc3C2)ccc2cccnc12 [Compound 51, 7-((3,4-Dihydroisoquinolin-2(1H)-yl)methyl)quinolin-8-ol] | 155 to 157 | 4.74 ± 0.04 | 4.79 | 2.39 ± 0.02 | 2.4 | 3.16 ± 0.41 | 3.16 | 1.04 ± 0.1 | 1.05 | 3.03 | 2.97 ± 0.31 | 2.95 | 2.16 ± 0.31 | 1.37 | IC50 (MES-SA/Dx5 cells; [15]): 2.14 µM; IC50 (MES-SA/Dx5 cells; [16]): 1.73 µM; pKa [2, 17]: 6.24 ± 0.03; pKa [2, 18]: 10.68 ± 0.03; pKa [2, 19]: 3.07 ± 0.03
Oc1ccc(Cl)c2cccnc12 [Compound 13, reference compound] |  |  |  |  |  | 8.26 ± 0.1 | 8.32 | 5.15 ± 0.48 | 5.13 | 1.6 |  |  |  |  | pKa (OH), experimental ([1]; ref 59 (Mészáros et al., Dalton Trans. 2020)): 7.6

Continued, in another order:

melting point [°C] | IC50 (A431 cells; [11]) [µM] | IC50 (A431 cells; [12]) [µM] | IC50 (A431-B1 cells; [13]) [µM] | IC50 (A431-B1 cells; [14]) [µM] | SMILES | IC50 (MES-SA cells; [3]) [µM] | IC50 (MES-SA cells; [4]) [µM] | IC50 (MES-SA/Dx5 cells; [5]) [µM] | IC50 (MES-SA/Dx5 cells; [6]) [µM] | SR (MES-SA/Dx5 cells) | IC50 (MES-SA cells; [7]) [µM] | IC50 (MES-SA cells; [8]) [µM] | IC50 (MES-SA/Dx5 cells; [9]) [µM] | SR_TQ (MES-SA/Dx5 cells) | also measured
156 to 159 |  |  |  |  | Oc1c(CN2CCc3ccccc3C2)cc(Br)c2cccnc12 [Compound 81, 5-Bromo-7-((3,4-dihydroisoquinolin-2(1H)-yl)methyl)quinolin-8-ol] | 2.23 ± 0.15 | 2.29 | 0.34 ± 0.05 | 0.363 | 6.23 | 2.45 | 1.78 | 1.48 | 1.82 | SR (MES-SA / MES-SA/Dx5) (MES-SA/Dx5 cells; fraction of IC50 in P-gp negative vs positive cells, absence of TQ): 6.50; SR (MES-SA_TQ / Dx5_TQ) (values in parentheses) (MES-SA/Dx5 cells; [10]): 1.66
119 to 121 | 4.32 ± 0.39 | 4.27 | 1.54 ± 0.51 | 1.45 | Oc1c(CN2CCCC2)cc(Br)c2cccnc12 [Compound 16, 5-Bromo-7-(pyrrolidin-1-ylmethyl)quinolin-8-ol] | 3.9 ± 0.87 | 3.8 | 0.41 ± 0.14 | 0.389 | 9.45 | 4.58 ± 1.05 | 4.47 | 3.14 ± 0.89 | 1.46 | 
 | 6.6 ± 3.57 | 5.75 | 2.42 ± 0.29 | 2.4 | Oc1c(CN2CCOCC2)cc(Cl)c2cccnc12 [Compound 29] | 1.52 ± 0.07 | 1.51 | 0.82 ± 0.06 | 0.813 | 1.86 | 1.66 ± 0.02 | 1.66 | 1.17 ± 0.01 | 1.41 | pKa (NquinH+), experimental ([1]; water, 25 °C, ref 15 (Pape et al., Cancers 2021)): < 2
 | 7.3 ± 0.98 | 9.77 | 1.62 ± 0.92 | 2.4 | Oc1c(CN2CCCCC2)ccc2cccnc12 [Compound 3] | 5.21 ± 0.95 | 5.13 | 0.85 ± 0.18 | 0.832 | 6.13 | 4.18 | 4.07 | 2.69 | 1.56 | IC50 (MES-SA cells; read-out: IC50 / μM MES-SA (values in parentheses), presence of 1 μM P-gp inhibitor tariquidar (TQ)): 3.81 µM; IC50 (MES-SA cells; read-out: IC50 / μM MES-SA, absence of TQ, 72 h incubation): 5.46 ± 1.01 µM; pKa (other; N+amH), experimental ([1]; water, 25 °C, ref 50 (Pape et al., Dalton Trans. 2018)): > 11; IC50 (MES-SA/Dx5 cells; [16]): 1.87 µM; IC50 (MES-SA/Dx5 cells; read-out: IC50 / μM MES-SA/Dx5, absence of TQ, 72 h incubation): 0.86 ± 0.19 µM; IC50 (A431 cells; read-out: IC50 / µM A431, 72 h incubation): 10.1 ± 2.95 µM; IC50 (A431-B1 cells; read-out: IC50 / µM A431-B1, 72 h incubation): 2.48 ± 0.7 µM
 | 6.67 ± 1.69 | 6.46 | 1.69 ± 0.27 | 1.66 | Oc1c(CN2CCCCC2)cc(Cl)c2cccnc12 [Compound 19] | 2.49 ± 0.39 | 2.45 | 0.29 ± 0.05 | 0.282 | 8.71 | 3.38 | 3.39 | 2.58 | 1.31 | IC50 (MES-SA cells; Homo sapiens, MES-SA, read-out: pIC50 MES-SA, absence of TQ (converted), SARM figure): 2.24 µM; IC50 (MES-SA/Dx5 cells; [15]): 2.57 µM; pKa [2, 17]: 5.8 ± 0.03; pKa [2, 18]: > 11; pKa [2, 19]: < 2
